Data set [1] addresses T1, LEDGF-integrase interaction (His6-tagged HIV-1 integrase, flag-LEDGF/p75) (Human immunodeficiency virus type 1 group M subtype B, UniProt P04585).
T1 construct: His6-tagged HIV-1 integrase; made in house
Briefly: AlphaScreen assay of LEDGF-integrase interaction inhibition. The data set is classed as binding. Particulars: compound at 100 μM. How it is done:
The AlphaScreen assay was performed according to the manufacturer's protocol (Perkin Elmer, Benelux). Reactions were performed in 25 μl final volume in 384-well Optiwell™ microtiter plates (Perkin Elmer). The reaction buffer contained 25 mM Tris-HCl (pH 7.4), 150 mM NaCl, 1 mM MgCl2, 0.01% (v/v) Tween-20 and 0.1% (w/v) bovine serum albumin. His6-tagged integrase (300 nM final concentration) was incubated with the compounds for 30 min at 4° C. The compounds were added at varying concentrations spanning a wide range from 0.1 up to 100 μM. Afterwards 100 nM flag-LEDGF/p75 was added and incubation was prolonged for an additional hour at 4° C. Subsequently 5 μl of Ni-chelate—coated acceptor beads and 5 μl anti-flag donor beads were added to a final concentration of 20 μg/ml of both beads. Proteins and beads were incubated for 1 h at 30° C. in order to allow association to occur. Exposure of the reaction to direct light was omitted as much as possible and the emission of light from the acceptor beads was measured in the EnVision plate reader (Perkin Elmer, Benelux) and analyzed using the EnVision manager software. IN/DNA binding was analyzed in a similar setting using His6-tagged integrase (1 μM final concentration) and an oligodeoxynucleotide mimicking the IN ELISA oligonucleotide substrate (30 nM final concentration). Counterscreens with JPO2 or PogZ, respectively, were essentially performed as described previously. Expression and purification of recombinant proteins: His6-tagged HIV-1 integrase, 3xflag-tagged LEDGF/p75, MBP-JPO2 and MBP-PogZ were purified for AlphaScreen applications as described previously.

The subject of a further data set is HIV. Briefly: microbe, parasite or virus in culture. In kind it is cell-based. Particulars: Human immunodeficiency virus 1, MT4. How it is done: (§1) A rapid and automated assay procedure was used for the in vitro evaluation of anti-HIV agents. An HTLV-1 transformed T4-cell line MT-4, which was previously shown to be highly susceptible to and permissive for HIV infection, served as the target cell line. Inhibition of the HIV-induced cytopathogenic effect was used as the end point. The viability of both HIV-and mock-infected cells was assessed spectrophotometrically via in situ reduction of 3-(4,5-dimethylthiazol-2-yl)-2,5-diphenyltetrazolium bromide (MTT). The 50% cytotoxic concentration (CC50 in μg/ml) was defined as the concentration of compound that reduced the absorbance of the mock-infected control sample by 50%. The percent protection achieved by the compound in HIV-infected cells was calculated by the following formula: […]
whereby (ODT)HIV is the optical density measured with a given concentration of the test compound in HIV-infected cells; (ODC)HIV is the optical density measured for the control untreated HIV-infected cells; (ODC)MOCK is the optical density measured for the control untreated mock-infected cells; all optical density values were determined at 540 nm. The dose achieving 50% protection according to the above formula was defined as the 50% inhibitory concentration (EC50 in μg/ml or μM). The ratio of CC50 to EC50 was defined as the selectivity index (SI). […] Examples of inhibition of cell proliferation by particular compounds of the invention can be found by looking at the respective CC50 values in the MT-4 cell line. Cells: MT-4 cells (Miyoshi et al., 1982) were grown and maintained in RPMI 1640medium supplemented with 10% heat-inactivated fetal calf serum, 2 mM 1-glutamine, 0.1% sodium bicarbonate, and 20æg of gentamicin per ml.
Viruses: The HIV-1 (NL4.3) strain (Adachi et al., 1986) is a molecular clone obtained from the National Institutes of Health (Bethesda, Md.). The HIV-2 (ROD) (Barr, -Sinoussi et al., 1983) stock was obtained from culture supernatant of HIV-2 infected cell lines.

Data set [2] can be described thus: Cytotoxicity in mock-infected MT-4 cells (MTT). In kind it is cell-based. Particulars: human, mock-infected MT-4 cells. How it is done:
as §1, with “The 50% cytotoxic concentration (CC50 in μg/ml) was defined as the concentration of compound that reduced the absorbance of the mock-infected control sample by 50%.” left out
whereby (ODT)HIV is the optical density measured with a given concentration of the test compound in HIV-infected cells; (ODC)HIV is the optical density measured for the control untreated HIV-infected cells; (ODC)MOCK is the optical density measured for the control untreated mock-infected cells; all optical density values were determined at 540 nm. […] The ratio of CC50 to EC50 was defined as the selectivity index (SI).

Setting [3] is: 50% protection of HIV-infected MT-4 cells, read-out: EC50.

Where two headings read alike, the source gives them in different places. A value given as a limit tells only on which side of the number the result lay.

The results in this text go back to patent US20120316161A1, “NOVEL ANTIVIRAL COMPOUNDS” (KATHOLIEKE UNIVERSITEIT LEUVEN, priority 2009, published 2012).

Consider `CCCC(C(=O)O)c1c(C)nc2ccnn2c1-c1ccc(C)cc1` (centres unmarked) [CPD-57, 2-(5-methyl-7-p-tolylpyrazolo[1,5-a]pyrimidin-6-yl)pentanoic acid], for which, in data set [1], the “Alpha screen % (100 μM)” value stood at 84%. Moreover, the EC50 with HIV (setting [3]) was determined as 192 µM. Further, the CC50 in data set [2] is more than 250 µM.

Turning to `CCCC(C(=O)O)c1c(C)nc2cc(C(C)(C)C)nn2c1-c1ccccc1` (centres unmarked) [CPD-58, 2-(2-tert-butyl-5-methyl-7-phenylpyrazolo[1,5-a]pyrimidin-6-yl)pentanoic acid], the “Alpha screen % (100 μM)” value in data set [1] came to 77%. Besides, the EC50 with HIV (setting [3]) worked out at 27.3 µM. In data set [2], half-maximal cytotoxicity (CC50) was put at 121 µM.

With `CCCC(C(=O)O)c1c(C)nc2cc(C(C)(C)C)nn2c1-c1ccc(C)cc1` (centres unmarked) [CPD-59, 2-(2-tert-butyl-5-methyl-7-p-tolylpyrazolo[1,5-a]pyrimidin-6-yl)pentanoic acid], in data set [1], the “Alpha screen % (100 μM)” value was determined as 92%. Further, the EC50 in the data set with HIV (setting [3]) was found to be 14.3 µM. Further, in data set [2], the CC50 is more than 250 µM.

With `CCCC(C(=O)O)c1c(C)nc2c(Br)c(C(C)(C)C)nn2c1-c1ccc(C)cc1` (centres unmarked) [CPD-60, 2-(3-bromo-2-tert-butyl-5-methyl-7-p-tolylpyrazolo[1,5-a]pyrimidin-6-yl)pentanoic acid], in data set [1], the “Alpha screen % (100 μM)” value came to 92%. The EC50 with HIV (setting [3]) is 2.39 µM. In data set [2], this compound yielded a CC50 of 56.3 µM.

Turning to `CCCC(C(=O)O)c1c(C)nc2cc(-c3ccccc3)nn2c1-c1ccc(C)cc1` (centres unmarked) [CPD-61, 2-(5-methyl-2-phenyl-7-p-tolylpyrazolo[1,5-a]pyrimidin-6-yl)pentanoic acid], in data set [1], the “Alpha screen % (100 μM)” value came out at 94%. In addition, in the data set with HIV (setting [3]), the EC50 amounted to 30.2 µM. Further, the CC50 in data set [2] is 104 µM.

As for `CCCC(C(=O)O)c1c(C)nc2cc(C(C)(C)C)nn2c1-c1ccc2cc[nH]c2c1` (centres unmarked) [CPD-65, 2-(2-tert-butyl-7-(1H-indol-6-yl)-5-methylpyrazolo[1,5-a]pyrimidin-6-yl)pentanoic acid], the “Alpha screen % (100 μM)” value in data set [1] turned out to be 30%. Besides, in the data set with HIV, the EC50 is 5.69 µM. Further, the CC50 in data set [2] was 46.5 µM.

For the compound `CCCC(C(=O)O)c1c(C)nc2cc(C(C)(C)C)nn2c1-c1ccc2occc2c1` (centres unmarked) [CPD-66, 2-(7-(benzofuran-5-yl)-2-tert-butyl-5-methylpyrazolo[1,5-a]pyrimidin-6-yl)pentanoic acid], the “Alpha screen % (100 μM)” value in data set [1] was determined as 92%. Further, the EC50 with HIV (setting [3]) turned out to be 10.5 µM. In data set [2], this compound showed a CC50 of 99 µM.

Turning to `CCCC(C(=O)O)c1c(C)nc2cc(C(C)(C)C)nn2c1-c1ccc2sccc2c1` (centres unmarked) [CPD-67, 2-(7-(benzo[b]thiophen-5-yl)-2-tert-butyl-5-methylpyrazolo[1,5-a]pyrimidin-6-yl)pentanoic acid], the “Alpha screen % (100 μM)” value in data set [1] is listed as 93%. Besides, in the data set on HIV (setting [3]), the EC50 came out at 2.94 µM. Besides, it took 70 µM to reach half-maximal cytotoxicity in data set [2] (CC50).

As for `CCCC(C(=O)O)c1c(C)nc2cc(C(C)(C)C)nn2c1-c1ccc2c(c1)CCO2` (centres unmarked) [CPD-68, 2-(2-tert-butyl-7-(2,3-dihydrobenzofuran-5-yl)-5-methylpyrazolo[1,5-a]pyrimidin-6-yl)pentanoic acid], in data set [1], the “Alpha screen % (100 μM)” value was 93%. For the same compound, in the data set with HIV (setting [3]), the half-maximal effective concentration (EC50) is 6.42 µM. In data set [2], this compound came in with a cytotoxic concentration (CC50) of 101 µM.

On to `CCCC(C(=O)O)c1c(C)nc2cc(C(C)(C)C)nn2c1-c1ccc(Cl)cc1` (centres unmarked) [CPD-69, 2-(2-tert-butyl-7-(4-chlorophenyl)-5-methylpyrazolo[1,5-a]pyrimidin-6-yl)pentanoic acid], for which the “Alpha screen % (100 μM)” value in data set [1] is listed as 93%. This compound also showed an EC50 with HIV of 1.61 µM. The compound also came in with a CC50 in data set [2] of 40.3 µM.

As to `CCCC(C(=O)O)c1c(C)nc2cc(C(C)(C)C)nn2c1-c1ccc(C)c(C)c1` (centres unmarked) [CPD-70, 2-(2-tert-butyl-7-(3,4-dimethylphenyl)-5-methylpyrazolo[1,5-a]pyrimidin-6-yl)pentanoic acid], the “Alpha screen % (100 μM)” value in data set [1] is reported as 93%. In the data set with HIV (setting [3]), the EC50 turned out to be 72.1 µM. In addition, the CC50 in data set [2] was more than 125 µM.

For the compound `CCCC(C(=O)O)c1c(C)nc2cc(C(C)(C)C)nn2c1-c1ccc(CC)cc1` (centres unmarked) [CPD-71, 2-(2-tert-butyl-7-(4-ethylphenyl)-5-methylpyrazolo[1,5-a]pyrimidin-6-yl)pentanoic acid], the “Alpha screen % (100 μM)” value in data set [1] amounted to 74%. Further, the half-maximal effective concentration (EC50) with HIV (setting [3]) is 2.8 µM. Further, in data set [2], half-maximal cytotoxicity (CC50) was put at 73 µM.

On to `CCCC(C(=O)O)c1c(C)nc2cc(C(C)(C)C)nn2c1-c1ccc2c(c1)OCCCO2` (centres unmarked) [CPD-72, 2-(2-tert-butyl-7-(3,4-dihydro-2H-benzo[b][1,4]dioxepin-7-yl)-5-methylpyrazolo[1,5-a]pyrimidin-6-yl)pentanoic acid], for which the “Alpha screen % (100 μM)” value in data set [1] was found to be 93%. Besides, in the data set on HIV (setting [3]), the half-maximal effective concentration (EC50) was 22.6 µM. In addition, the CC50 in data set [2] is more than 125 µM.

On to `CCCc1cc2nc(C)c(C(CCC)C(=O)O)c(-c3ccc(C)cc3)n2n1` (centres unmarked) [CPD-77, 2-(5-methyl-2-propyl-7-p-tolylpyrazolo[1,5-a]pyrimidin-6-yl)pentanoic acid], for which, in data set [1], the “Alpha screen % (100 μM)” value stood at 83%. For the same compound, in the data set with HIV (setting [3]), the EC50 turned out to be 28.1 µM. In data set [2], this compound had a CC50 of 203 µM.

As to `CCCC(C(=O)O)c1c(C)nc2cc(-c3ccco3)nn2c1-c1ccc(C)cc1` (centres unmarked) [CPD-78, 2-(2-(furan-2-yl)-5-methyl-7-p-tolylpyrazolo[1,5-a]pyrimidin-6-yl)pentanoic acid], the “Alpha screen % (100 μM)” value in data set [1] is 83%. Also, the EC50 in the data set with HIV (setting [3]) came to 21.2 µM. For the same compound, half-maximal cytotoxicity in data set [2] (CC50) was put at 127 µM.

`CCCC(C(=O)O)c1c(C)nc2cc(C(C)(C)C)nn2c1-c1ccc(Cl)cc1F` (centres unmarked) [CPD-79, 2-(2-tert-butyl-7-(4-chloro-2-fluorophenyl)-5-methylpyrazolo[1,5-a]pyrimidin-6-yl)pentanoic acid]: the “Alpha screen % (100 μM)” value in data set [1] came out at 75%. The concentration giving a half-maximal response (EC50) in the data set on HIV (setting [3]) came out at 1.89 µM. The same compound registered a CC50 in data set [2] of 76 µM.

With `CCCC(C(=O)O)c1c(C)nc2cc(C(C)(C)C)nn2c1-c1ccc(C)cc1F` (centres unmarked) [CPD-80, 2-(2-tert-butyl-7-(2-fluoro-4-methylphenyl)-5-methylpyrazolo[1,5-a]pyrimidin-6-yl)pentanoic acid], the “Alpha screen % (100 μM)” value in data set [1] was found to be 75%. In addition, the EC50 in the data set on HIV (setting [3]) amounted to 4.08 µM. Half-maximal cytotoxicity in data set [2] (CC50) was put at 192 µM.

Regarding `CCC(C)C(C(=O)O)c1c(C)nc2cc(C(C)(C)C)nn2c1-c1ccc(C)cc1` (centres unmarked) [CPD-86, 2-(2-tert-butyl-7-p-tolyl-5-methylpyrazolo[1,5-a]pyrimidin-6-yl)-3-methylpentanoic acid], the CC50 in data set [2] is 77 µM.

For `CCCC(C(=O)O)c1c(C)nc2c(nc(C)n2C)c1-c1ccc(C)cc1` (centres unmarked) [CPD-105, 2-(2,3,5-Trimethyl-7-p-tolyl-3H-imidazo[4,5-b]pyridin-6-yl)pentanoic acid], the EC50 with HIV (setting [3]) is 23.2 µM. The compound further came in with a CC50 in data set [2] of 235 µM.

On to `CCCC(C(=O)O)c1c(C)nc2nc(C(C)C)nn2c1-c1ccc(C)cc1` (centres unmarked) [CPD-121, 2-(2-isopropyl-5-methyl-7-p-tolyl-[1,2,4]-triazolo[1,5-a]pyrimidin-6-yl)pentanoic acid], for which the EC50 in the data set with HIV (setting [3]) is 124 µM. Further, in data set [2], the CC50 was more than 250 µM.
